Read-outs that look alike come from different tables or passages of the source. *1 amine or outer side, *2 acyl side, *3 side chain or, on linkers, in order; H or OH if unused. Where a SMILES comes first, the peptide text is derived from it. Bridges are numbered along the chain shown (N, C = ends). [ ]: non-standard residue; d: D form. ξ: configuration not given here. Trp(1-CH2COOH) = N[C@@H](Cc1cn(CC(=O)O)c2ccccc12)C(=O)O; Trp(βS-Me) = C[C@@H](c1c[nH]c2ccccc12)[C@H](N)C(=O)O; Phe(3,4,5-F3) = N[C@@H](Cc1cc(F)c(F)c(F)c1)C(=O)O; Trp(5-OH) = N[C@@H](Cc1c[nH]c2ccc(O)cc12)C(=O)O; NMePhe(4-F) = CN[C@@H](Cc1ccc(F)cc1)C(=O)O; Phe(4-F) = N[C@@H](Cc1ccc(F)cc1)C(=O)O; NMeY = CN[C@@H](Cc1ccc(O)cc1)C(=O)O; NMeIle(3ξ) = CCC(C)[C@H](NC)C(=O)O; Hyp = O=C(O)[C@@H]1C[C@@H](O)CN1; NMeF = CN[C@@H](Cc1ccccc1)C(=O)O; X1 = O=C([C@H]1COCCN1[*:1])[*:2]; NMeNle = CCCC[C@H](NC)C(=O)O; Pip = O=C(O)[C@@H]1CCCCN1; dPip = O=C(O)[C@H]1CCCCN1; hSer = N[C@@H](CCO)C(=O)O; NMeA = CN[C@@H](C)C(=O)O; Orn = NCCC[C@H](N)C(=O)O; dThz = O=C(O)[C@H]1CSCN1; Dab = NCC[C@H](N)C(=O)O; Dap = NC[C@H](N)C(=O)O
Biological target: T1, Human PD-L1/PD-1 (Homo sapiens, UniProt Q9NZQ7)
T1 construct: TVMV protease cleavage site (C); made in house; host or cells: HEK293T cells
Assay: HTRF Human PD-L1/PD-1 binding assay (PD-1-Ig/PD-L1-His)
Details: PD-L1-His 10 nM, PD-1-Ig 20 nM
Summary of the method: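 HTRF read-out (665/620 nm ratio) after 30 min equilibration with Eu-cryptate anti-Ig mAb (1 nM) and APC anti-His mAb (20 nM). Peptides preincubated 15 min with PD-L1-His (10 nM), then PD-1-Ig (20 nM) added for 15 min.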

[1] = class symbol, read-out: HTRF Human PD-L1/PD-1 Binding Assay IC50 Range

T1 sequence (Q9NZQ7 with tags, fused parts or gaps): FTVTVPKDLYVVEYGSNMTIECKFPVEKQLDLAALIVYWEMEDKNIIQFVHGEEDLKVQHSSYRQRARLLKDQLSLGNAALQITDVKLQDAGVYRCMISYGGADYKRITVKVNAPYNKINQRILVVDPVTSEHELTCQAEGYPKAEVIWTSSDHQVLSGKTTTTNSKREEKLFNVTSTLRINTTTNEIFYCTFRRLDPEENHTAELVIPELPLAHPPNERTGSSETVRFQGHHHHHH

CCCC[C@H]1C(=O)N(C)[C@@H](CCCC)C(=O)N[C@@H](CCC(=O)O)C(=O)N[C@H](C(=O)NCC(N)=O)CSCC(=O)N[C@@H](Cc2ccc(O)cc2)C(=O)N(C)[C@@H](C)C(=O)N[C@@H](CC(N)=O)C(=O)N2CCC[C@H]2C(=O)N[C@@H](CN)C(=O)N[C@@H](CC(C)C)C(=O)N2C[C@H](O)C[C@H]2C(=O)N[C@@H](Cc2c[nH]c3ccccc23)C(=O)N[C@@H](CCC(=O)O)C(=O)N[C@@H](Cc2c[nH]c3ccccc23)C(=O)N1C [Example 5232] ({CH2CO}-Y[NMeA]NP[Dap]L[Hyp]WEW[NMeNle][NMeNle]ECG-NH2; thioether N-14)
IC50 [1]: 1 to 9.9 nM

CCCC[C@H]1C(=O)N(C)[C@@H](CCCC)C(=O)N[C@@H](CCC(=O)O)C(=O)N[C@H](C(=O)NCC(N)=O)CSCC(=O)N[C@@H](Cc2ccc(OC)cc2)C(=O)N(C)[C@@H](C)C(=O)N[C@@H](CC(=O)O)C(=O)N2CCC[C@H]2C(=O)N[C@@H](CN)C(=O)N[C@@H](CCCCN)C(=O)N2C[C@H](O)C[C@H]2C(=O)N[C@@H](Cc2c[nH]c3ccccc23)C(=O)N[C@@H](CCN)C(=O)N[C@@H](Cc2c[nH]c3ccccc23)C(=O)N1C [Example 7122] ({CH2CO}-Y(Me)[NMeA]DP[Dap]K[Hyp]W[Dab]W[NMeNle][NMeNle]ECG-NH2; thioether N-14)
IC50 [1]: 1 to 9.9 nM

CCCC[C@H]1C(=O)N(C)[C@@H](CCCC)C(=O)N[C@@H](CCCNC(=N)N)C(=O)N[C@H](C(N)=O)CSCC(=O)N[C@@H](Cc2ccc(O)cc2)C(=O)N(C)[C@@H](C)C(=O)N[C@@H](CC(N)=O)C(=O)N2CCC[C@H]2C(=O)N[C@@H](CC(N)=O)C(=O)N[C@@H](CC(C)C)C(=O)N2C[C@H](O)C[C@H]2C(=O)N[C@@H]([C@@H](C)c2c[nH]c3ccccc23)C(=O)N[C@@H](CO)C(=O)N[C@@H](Cc2c[nH]c3ccccc23)C(=O)N1C [Example 10531] ({CH2CO}-Y[NMeA]NPNL[Hyp][Trp(βS-Me)]SW[NMeNle][NMeNle]RC-NH2; thioether N-14)
IC50 [1]: 1 to 9.9 nM

CCCC[C@H]1C(=O)N(C)[C@@H](CCCC)C(=O)N[C@@H](CCN)C(=O)N[C@H](C(=O)NCC(N)=O)CSCC(=O)N[C@@H](Cc2ccc(O)cc2)C(=O)N2CCCC[C@H]2C(=O)N[C@@H](CC(=O)O)C(=O)N2CCC[C@H]2C(=O)N[C@@H](Cc2cnc[nH]2)C(=O)N[C@@H](CCC(=O)O)C(=O)N2C[C@H](O)C[C@H]2C(=O)N[C@@H](Cc2c[nH]c3ccccc23)C(=O)N[C@@H](CO)C(=O)N[C@@H](Cc2cn(CC(=O)O)c3ccccc23)C(=O)N1C [Example 1294] ({CH2CO}-Y[Pip]DPHE[Hyp]WS[Trp(1-CH2COOH)][NMeNle][NMeNle][Dab]CG-NH2; thioether N-14)
IC50 [1]: 10 to 99.9 nM

CCCC[C@H]1C(=O)N(C)[C@@H](CCCC)C(=O)N[C@@H](CC(=O)O)C(=O)N[C@H](C(=O)NCC(N)=O)CSCC(=O)N[C@@H](Cc2ccc(O)cc2)C(=O)N(C)[C@@H](C)C(=O)N[C@@H](CC(=O)O)C(=O)N2CCC[C@H]2C(=O)N[C@@H](Cc2cnc[nH]2)C(=O)N[C@@H](CCCCN)C(=O)N2C[C@H](O)C[C@H]2C(=O)N[C@@H](Cc2c[nH]c3ccccc23)C(=O)N[C@@H](CCCCN)C(=O)N[C@@H](Cc2cn(CC(=O)O)c3ccccc23)C(=O)N1C [Example 6209] ({CH2CO}-Y[NMeA]DPHK[Hyp]WK[Trp(1-CH2COOH)][NMeNle][NMeNle]DCG-NH2; thioether N-14)
IC50 [1]: 1 to 9.9 nM

CCCC[C@H]1C(=O)N(C)[C@@H](CCCC)C(=O)N[C@@H](CCC(=O)O)C(=O)N[C@H](C(=O)NCC(N)=O)CSCC(=O)N[C@@H](Cc2ccc(O)cc2)C(=O)N(C)[C@@H](C)C(=O)N[C@@H](CC(N)=O)C(=O)N2CCC[C@H]2C(=O)N[C@@H](CO)C(=O)N[C@@H](CCC(N)=O)C(=O)N2C[C@H](O)C[C@H]2C(=O)N[C@@H](Cc2c[nH]c3ccccc23)C(=O)N[C@@H](CO)C(=O)N[C@@H](Cc2c[nH]c3ccccc23)C(=O)N1C [Example 5204] ({CH2CO}-Y[NMeA]NPSQ[Hyp]WSW[NMeNle][NMeNle]ECG-NH2; thioether N-14)
IC50 [1]: 1 to 9.9 nM

CCCC[C@H]1C(=O)N(C)[C@@H](CCCC)C(=O)N[C@@H](CCCN)C(=O)N[C@H](C(=O)NCC(N)=O)CSCC(=O)N[C@@H](Cc2ccc(OC)cc2)C(=O)N(C)[C@@H](C)C(=O)N[C@@H](CCN)C(=O)N2CCC[C@H]2C(=O)N[C@@H](CN)C(=O)N[C@@H](CCC(=O)O)C(=O)N2C[C@H](O)C[C@H]2C(=O)N[C@@H](Cc2c[nH]c3ccccc23)C(=O)N[C@@H](CCN)C(=O)N[C@@H](Cc2c[nH]c3ccccc23)C(=O)N1C [Example 7092] ({CH2CO}-Y(Me)[NMeA][Dab]P[Dap]E[Hyp]W[Dab]W[NMeNle][NMeNle][Orn]CG-NH2; thioether N-14)
IC50 [1]: 10 to 99.9 nM

CCCC[C@H]1C(=O)N2CCC[C@@H]2C(=O)N[C@@H](CC(=O)O)C(=O)N[C@@H](C(C)C)C(=O)N(C)[C@@H](Cc2ccccc2)C(=O)N[C@@H](CCC(=O)O)C(=O)N2CCOC[C@@H]2C(=O)N[C@@H](Cc2c[nH]c3ccccc23)C(=O)N[C@@H](Cc2ccc(O)cc2)C(=O)N[C@@H](CCCCN)C(=O)N[C@H](C(=O)NCC(N)=O)CSCC(=O)N[C@@H](Cc2cc(F)c(F)c(F)c2)C(=O)N(C)[C@@H](Cc2ccc(F)cc2)C(=O)N1C [Example 10598] ({CH2CO}-[Phe(3,4,5-F3)][NMePhe(4-F)][NMeNle][dP]DV[NMeF]E[X1]WYKCG-NH2; thioether N-13)
IC50 [1]: 1 to 9.9 nM

CCCC[C@H]1C(=O)N(C)[C@@H](CCCC)C(=O)N[C@@H](CCC(=O)O)C(=O)N[C@H](C(=O)NCC(N)=O)CSCC(=O)N[C@@H](Cc2ccc(OC)cc2)C(=O)N(C)[C@@H](C)C(=O)N[C@@H](CC(=O)O)C(=O)N2CCC[C@H]2C(=O)N[C@@H](CN)C(=O)N[C@@H](CCC(=O)O)C(=O)N2C[C@H](O)C[C@H]2C(=O)N[C@@H](Cc2c[nH]c3ccccc23)C(=O)N[C@@H](CCN)C(=O)N[C@@H](Cc2c[nH]c3ccc(O)cc23)C(=O)N1C [Example 7152] ({CH2CO}-Y(Me)[NMeA]DP[Dap]E[Hyp]W[Dab][Trp(5-OH)][NMeNle][NMeNle]ECG-NH2; thioether N-14)
IC50 [1]: 10 to 99.9 nM

CCCC[C@H]1C(=O)N2CCOC[C@@H]2C(=O)N[C@@H](CC(=O)O)C(=O)N[C@@H](C(C)C)C(=O)N(C)[C@@H](Cc2ccccc2)C(=O)N[C@@H](CCC(=O)O)C(=O)N2CCC[C@@H]2C(=O)N[C@@H](Cc2c[nH]c3ccccc23)C(=O)N[C@@H](Cc2ccc(O)cc2)C(=O)N[C@@H](CCOC)C(=O)N[C@H](C(=O)NCC(N)=O)CSCC(=O)N[C@@H](Cc2cc(F)c(F)c(F)c2)C(=O)N(C)[C@@H](Cc2ccccc2)C(=O)N1C [Example 10192] ({CH2CO}-[Phe(3,4,5-F3)][NMeF][NMeNle][X1]DV[NMeF]E[dP]WY[hSer](Me)CG-NH2; thioether N-13)
IC50 [1]: 10 to 99.9 nM

CCCC[C@H]1C(=O)N2CCC[C@@H]2C(=O)N[C@@H](CC(=O)O)C(=O)N[C@@H](C(C)C)C(=O)N(C)[C@@H](Cc2ccccc2)C(=O)N[C@@H](CCC(=O)O)C(=O)N2CSC[C@@H]2C(=O)N[C@@H](Cc2c[nH]c3ccccc23)C(=O)N[C@@H](Cc2ccc(O)cc2)C(=O)N[C@@H](CC(C)C)C(=O)N[C@H](C(=O)NCC(N)=O)CSCC(=O)N[C@@H](Cc2cc(F)c(F)c(F)c2)C(=O)N(C)[C@@H](Cc2ccccc2)C(=O)N1C [Example 10090] ({CH2CO}-[Phe(3,4,5-F3)][NMeF][NMeNle][dP]DV[NMeF]E[dThz]WYLCG-NH2; thioether N-13)
IC50 [1]: 1 to 9.9 nM

CCCC[C@H]1C(=O)N2CCC[C@@H]2C(=O)N[C@@H](CC(=O)O)C(=O)N[C@@H](C(C)C)C(=O)N(C)[C@@H](Cc2ccccc2)C(=O)N[C@@H](CC(=O)O)C(=O)N2CSC[C@@H]2C(=O)N[C@@H](Cc2c[nH]c3ccccc23)C(=O)N[C@@H](Cc2ccc(O)cc2)C(=O)N[C@@H](CC(C)C)C(=O)N[C@H](C(=O)NCC(N)=O)CSCC(=O)N[C@@H](Cc2cc(F)c(F)c(F)c2)C(=O)N(C)[C@@H](Cc2ccccc2)C(=O)N1C [Example 10091] ({CH2CO}-[Phe(3,4,5-F3)][NMeF][NMeNle][dP]DV[NMeF]D[dThz]WYLCG-NH2; thioether N-13)
IC50 (read-out: HTRF Human PD-L1/PD-1 Binding Assay IC50): 2.5 nM

CCCC[C@H]1C(=O)N2CCC[C@@H]2C(=O)N[C@@H](CC(=O)O)C(=O)N[C@@H](C(C)C)C(=O)N(C)[C@@H](C(C)CC)C(=O)N[C@@H](CCC(N)=O)C(=O)N2CCCC[C@@H]2C(=O)N[C@@H](Cc2c[nH]c3ccccc23)C(=O)N[C@@H](Cc2ccc(O)cc2)C(=O)N[C@@H](CC(C)C)C(=O)N[C@H](C(=O)NCC(N)=O)CSCC(=O)N[C@@H](Cc2ccc(F)cc2)C(=O)N(C)[C@@H](Cc2ccccc2)C(=O)N1C (stereo partly drawn) [Example 9261] ({CH2CO}-[Phe(4-F)][NMeF][NMeNle][dP]DV[NMeIle(3ξ)]Q[dPip]WYLCG-NH2; thioether N-13)
IC50 [1]: 1000 to 10000 nM

CCCC[C@H]1C(=O)N(C)[C@@H](CCCC)C(=O)N[C@@H](C)C(=O)N[C@H](C(=O)NCC(N)=O)CSCC(=O)N[C@@H](Cc2ccc(O)cc2)C(=O)N2CCCC[C@H]2C(=O)N[C@@H](CC(=O)O)C(=O)N2CCC[C@H]2C(=O)N[C@@H](CN)C(=O)N[C@@H](CC(C)C)C(=O)N2C[C@H](O)C[C@H]2C(=O)N[C@@H](Cc2c[nH]c3ccccc23)C(=O)N[C@@H](CO)C(=O)N[C@@H](Cc2c[nH]c3ccccc23)C(=O)N1C [Example 1523] ({CH2CO}-Y[Pip]DP[Dap]L[Hyp]WSW[NMeNle][NMeNle]ACG-NH2; thioether N-14)
IC50 [1]: 1 to 9.9 nM

CCCC[C@H]1C(=O)N2CCC[C@@H]2C(=O)N[C@@H](CC(=O)O)C(=O)N[C@@H](C(C)C)C(=O)N(C)[C@@H](Cc2ccccc2)C(=O)N[C@@H](CCC(=O)O)C(=O)N2CCCC[C@@H]2C(=O)N[C@@H](Cc2c[nH]c3ccccc23)C(=O)N[C@@H](Cc2ccc(O)cc2)C(=O)N[C@@H](CCN)C(=O)N[C@H](C(=O)NCC(N)=O)CSCC(=O)N[C@@H](Cc2cc(F)c(F)c(F)c2)C(=O)N(C)[C@@H](Cc2ccc(O)cc2)C(=O)N1C [Example 10600] ({CH2CO}-[Phe(3,4,5-F3)][NMeY][NMeNle][dP]DV[NMeF]E[dPip]WY[Dab]CG-NH2; thioether N-13)
IC50 [1]: 1 to 9.9 nM
